Test results as given in patent US12195427B2, “MASP-2 inhibitors and methods of use” (priority 2018, dated 2025).
Where a name gives a salt, the structure may show the parent alone.

Biological target: MASP-2 CCP2-SP (Homo sapiens (Human), UniProt O00187)
Test: MASP-2 co-crystallization, X-ray crystallography and structure analysis (H-bonds, van der Waals contacts);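 as to Ligand-pharmacophore element distance, pharmacophore element C2: distance from averaged pharmacophore element to bound ligand; missing value means element absent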;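 as to Ligand-pharmacophore element distance, pharmacophore element C3: distance from averaged pharmacophore element to bound ligand; missing value means element absent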;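 as to Ligand-pharmacophore element distance, pharmacophore element C4: distance from averaged pharmacophore element to bound ligand; missing value means element absent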;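 as to Ligand-pharmacophore element distance, pharmacophore element C5: distance from averaged pharmacophore element to bound ligand; missing value means element absent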
Parameters: van der Waals contact distance, MASP-2 HIS 483 atom CD2 / van der Waals contact distance, MASP-2 HIS 483 atom NE2 / van der Waals contact distance, SER 654 C to compound atom / van der Waals contact distance, SER 654 O to compound atom / van der Waals contact distance, TRP 655 C to compound atom / van der Waals contact distance, MASP-2 GLY 528 atom CA / van der Waals contact distance TRP 655 atom CZ3 / van der Waals contact distance TRP 655 atom N / van der Waals contact distance TRP 655 atom CE3 / van der Waals contact distance GLY 656 atom C / van der Waals contact distance GLY 656 atom CA / van der Waals contact distance GLY 656 atom O / van der Waals contact distance, MASP-2 TYR 607 atom CD1 / van der Waals contact distance, MASP-2 PRO 606 atom O / d(C3,CA1) / d(CA1,N1)2 / d(H4,O1) / d(H4,O2) / d(O1,O2) / d(CA1,O2) / d(CA6,O1) / d(CA6,O2) / d(CA1,C5) / d(O2,H3) / d(N2,C2) / d(CA5,N2) / d(N2,C4) / d(N2,C6) / d(N2,CA3) / d(N2,O3) / d(O4,H2): unit not given beside the values
Method in brief: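 Inhibitor complexes were obtained by soaking crystals of E. coli-expressed human MASP-2 CCP2-SP constructs, then flash-cooling in liquid nitrogen. Structures solved by molecular replacement (1Q3X search model) from synchrotron diffraction; where several poses existed, only one was analyzed, and nonbonded contacts listed can include H-bonds.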

[1] = Table A5-1 pharmacophore: distance between elements, S2/S1 region
[2] = Table A5-2 pharmacophore distance, S3/S4 region
[3] = Table A7-1, between pharmacophore elements of the bound compound
[4] = Table A7-2, between pharmacophore elements of the bound compound

Chain of MASP-2 CCP2-SP (O00187 445-686): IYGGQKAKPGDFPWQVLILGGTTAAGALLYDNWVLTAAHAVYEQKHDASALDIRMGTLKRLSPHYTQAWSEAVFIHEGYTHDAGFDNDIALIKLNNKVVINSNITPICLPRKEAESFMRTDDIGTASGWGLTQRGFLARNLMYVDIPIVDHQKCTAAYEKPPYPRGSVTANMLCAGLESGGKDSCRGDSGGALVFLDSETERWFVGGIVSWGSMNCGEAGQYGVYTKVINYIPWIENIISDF
Chain of MASP-2 CCP2-SP (O00187 364-432 partner): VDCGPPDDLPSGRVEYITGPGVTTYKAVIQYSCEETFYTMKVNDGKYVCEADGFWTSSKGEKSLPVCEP

SMILES: Cc1nc(N)ccc1CNC(=O)[C@H](C)NC(=O)[C@H]1C[C@H](Cc2ccccc2-c2ccccc2)CN1 [compound 1373, (2R,4S)-4-([1,1′-Biphenyl]-2-ylmethyl)-N—((S)-1-(((6-amino-2-methylpyridin-3-yl)methyl)amino)-1-oxopropan-2-yl)pyrrolidine-2-carboxamide Di-trifluoroacetate salt]
- H-bond distance to MASP-2 ASP 627 atom OD2 (Table A1 (H-Bonds), ASP 627 OD2): 3.21
- H-bond distance to MASP-2 GLY 656 atom N (Table A1 (H-Bonds), GLY 656 N): 3.2
- H-bond distance to MASP-2 GLY 656 atom O (Table A1 (H-Bonds), GLY 656 O): 2.76
- H-bond distance to MASP-2 SER 628 atom O (Table A1 (H-Bonds), SER 628 O): 3.18
- H-bond distance to MASP-2 SER 654 atom O (Table A1 (H-Bonds), SER 654 O): 3.04
- H-bond distance to MASP-2 SER 657 atom O (Table A1 (H-Bonds), SER 657 O): 2.89
- van der Waals contact distance, MASP-2 HIS 483 atom CD2 (Table A2-1): 3.71
- van der Waals contact distance, MASP-2 HIS 483 atom NE2 (Table A2-1): 3.62
- van der Waals contact distance, MASP-2 GLY 528 atom CA (Table A2-2): 3.79
- van der Waals contact distance, MASP-2 amino acid atom to compound atom (Table A2-7: SER 628 (CB, O, OG)): 3.64
- van der Waals contact distance, VAL 653 CG1 to compound atom (Table A2-11): 3.34
- van der Waals contact distance, SER 654 O to compound atom (Table A2-12): 3.83
- van der Waals contact distance, TRP 655 CA to compound atom (Table A2-12): 3.44
- van der Waals contact distance TRP 655 atom CE3 (Table A2-13, MASP-2 TRP 655 CE3, compound atom in line below): 3.65
- van der Waals contact distance TRP 655 atom CZ3 (Table A2-13, MASP-2 TRP 655 CZ3): 3.57
- van der Waals contact distance, MASP-2 amino acid atom to compound atom (Table A2 section before Table A2-8): 3.83
- Ligand-pharmacophore element distance, pharmacophore element C2 (Table A4-1, element C2): 0
- Ligand-pharmacophore element distance, pharmacophore element C3 (Table A4-1, element C3): 0.08
- Ligand-pharmacophore element distance, pharmacophore element C4 (Table A4-1, element C4): 0
- Ligand-pharmacophore element distance, pharmacophore element C5 (Table A4-1, element C5): 0
- Ligand-pharmacophore element distance, pharmacophore element C6 (Table A4-1, element C6): 0
- Ligand-pharmacophore element distance, pharmacophore element C7 (Table A4-1, element C7): 0
- Ligand-pharmacophore element distance, pharmacophore element CA1 (Table A4-1, element CA1): 0.56
- Ligand-pharmacophore element distance, pharmacophore element CA2 (Table A4-1, element CA2): 0.54
- Ligand-pharmacophore element distance, pharmacophore element CA3 (Table A4-1, element CA3): 0
- Ligand-pharmacophore element distance, pharmacophore element CA4 (Table A4-1, element CA4): 0
- Ligand-pharmacophore element distance, pharmacophore element CA5 (Table A4-1, element CA5): 2.5
- Ligand-pharmacophore element distance, pharmacophore element CA6 (Table A4-1, element CA6): 0
- d(C3,CA1) [1]: 2.85
- d(CA1,N1)2 [1]: 1.37
- d(CA1,O1) [1]: 4.41
- d(CA1,O2) [1]: 3.86
- d(H4,O1) [1]: 4.40
- d(H4,O2) [1]: 3.78
- d(O1,O2) [1]: 3.38
- d(CA5,N2) [2]: 6.60
- d(N2,CA2) [2]: 6.03
- d(O2,H3) [2]: 4.31
- d(O2,N2) [2]: 2.65
- a(C3, CA1, O1) (Table A6-1 pharmacophore angle): 149.81
- a(CA1, O1, O2) (Table A6-1 pharmacophore angle): 105.28
- a(O1, O2, H4) (Table A6-1 pharmacophore angle): 131.90
- a(N1, CA1, O1) b) (Table A6-1 pharmacophore angle, Methyl-amino-pyridine compounds): 174.08
- a(O1, O2, H3) (Table A6-2 pharmacophore angle): 147.32
- a(O1, O2, N2) (Table A6-2 pharmacophore angle): 141.07
- a(O2, N2, CA2) (Table A6-2 pharmacophore angle): 156.78
- Pharmacophore torsion angle a(C3, CA1, O1, H4) [3]: 25.67
- Pharmacophore torsion angle a(H4, O1, O2, H3) [3]: 50.98
- Pharmacophore torsion angle a(H4, O1, O2, N2) [3]: 139.02
- Pharmacophore torsion angle a(N1, CA1, O1, H4) [3]: 4.28
- Pharmacophore torsion angle a(O1, H4, O2, CA1) [3]: −84.42
- Pharmacophore torsion angle a(O1, O2, N2, CA2) [4]: 127.58
- Pharmacophore torsion angle a(O1, O2, N2, CA5) [4]: 91.76
